From patent US12343371B2, “Method for suppressing or alleviating primary or secondary progressive multiple sclerosis (PPMS or SPMS) using a sustained release depot formulation comprising glatiramer acetate” (MAPI PHARMA LTD., priority 2017, dated 2025)

Test system: primary progressive EAE (PP-EAE) in C57BL/6 female mice
Test: MOG 35-55 induced primary progressive EAE (PP-EAE) in mice: clinical score, body weight, survival
Conditions: for Body weight compared with untreated control (FIG. 2): P<0.05
[1] = C57BL/6 mice, PP-EAE, GA Depot 4 mg IM Day 0, 1, Copaxone 2 mg SC Days 0-8, N = 20/group, +/- standard error
[2] = C57BL/6 mice, PP-EAE, GA Depot 4 mg IM Day 0, 1, Copaxone 2 mg SC Days 0-8, N = 20/group, +/- standard error, listed as Copaxone®

Procedure: Animals were given food and water ad-libitum throughout the experiment. […] A 21G needle was used for injections in mice. […] Measurements: Body weight was measured every two days from day 0 to day 28. EAE was assessed by clinical scoring of the mice once daily from Day 0 to Day 28 post immunization (Table 2). For analysis, dead animals received clinical score of 5 and the weight recorded at the last measurement before animal death.
The following calculations were derived from clinical score raw data: mean maximum score is the mean of the highest scores noted for each mouse in a specific group up to indicated day of analysis; mean disease duration and mean day of onset were calculated as follows: Mean Disease Duration=Sum of (day of analysis−day of disease onset for each mouse)/(number of mice per group); Mean Day of Onset=(sum of day of disease onset of each mouse)/(number of mice per group). Area under the curve (AUC) of clinical score was calculated using Microsoft Excel and represents disease burden.
Glatiramer Acetate Depot (GA Depot): GA Depot was suspended in water for injection (WFI) and immediately injected intramuscularly (IM) at the indicated dose. Dose of GA Depot are given according to amount of active ingredient (i.e. GA Depot 4 mg contains 4 mg GA).
Statistical analysis: Data was analyzed using Microsoft Excel. Each data set was analyzed using single-factor analysis of variance (ANOVA) followed by one tailed student's T-test.

glatiramer acetate [Copaxone ®] was tested. Which “Survival Rate at Day 28” value (C57BL/6 mice, PP-EAE, GA Depot 4 mg IM Day 0, 1, Copaxone 2 mg SC Days 0-8, N = 20/group) did it give?
Its value is 90%.

What about the “AUC Clinical Score” value [1] of the same substance?
The value was 26.83 ± 2.49.

What about the “Mean Day of Onset” value [1] of the same substance?
The value was 12.35 ± 0.23.

What about the “Mean Disease Duration” value [1] of the same substance?
The value was 15.65 ± 0.23.

What about the “AUC Clinical Score” value [2] of the same substance?
The value was “significantly reduced”.

And the “Mean Day of Onset” value [2]?
Its value is “significantly reduced”.

And the “Mean Disease Duration” value [2]?
The value was “significantly reduced”.

What about the “Maximum Mean Disease Score” value (C57BL/6 mice, PP-EAE, GA Depot 4 mg IM Day 0, 1, Copaxone 2 mg SC Days 0-8, score 0-5, N = 20/group, +/- standard error) of the same substance?
Its value is 2.25 ± 0.22.

What about the “Body weight compared with untreated control (FIG. 2)” value (day 21) of the same substance?
The value was “significantly higher”.

What about the “Body weight compared with untreated control (FIG. 2)” value (days 10 to 17 following immunization) of the same substance?
The value was “significantly higher”.

What about the “mean clinical score compared with saline group (FIG. 1)” value (days 11-19 and day 20, p<0.05, GA Depot 4 mg, Copaxone 2 mg days 0-8) of the same substance?
The value was “mean clinical score of the saline group was significantly higher”.
